# Measurements published in paper PMC12472391, “Borylated Five-Membered Ring Iminosugars: Synthesis, Spectroscopic Analysis, and Biological Evaluation for Glycosidase Inhibition and Anticancer Properties for Application in Boron Neutron Capture Therapy (BNCT)—Part 1” (Pharmaceuticals, 2025).
# Tests used:
# Format in all cases: biochemical
# [1] = system: β-D-glucuronidase (bovine liver); experiment: Glycosidase inhibition, Table 6 (Laboratory 1)
# Excerpt: (§1) The enzymes α-D-glucosidase (from yeast), β-D-glucosidases (from almond and bovine liver), α-D-galactosidase (from coffee beans), β-D-galactosidase (from bovine liver), α-D-mannosidase (from Jack bean), β-D-mannosidase (from snail), α-L-rhamnosidase (from Penicillium decumbens), α-L-fucosidase (from bovine kidney), trehalase (from porcine kidney), β-D-glucuronidases (from E. coli and bovine liver), amyloglucosidase (from A. niger), para-nitrophenyl glycosides, and various disaccharides were purchased from Sigma-Aldrich Co. (St. Louis, MO, USA).
# (§2) Brush border membranes were prepared from the rat small intestine according to the method of Kessler et al., and were assayed at pH 6.8 for rat intestinal maltase using maltose. For rat intestinal maltase, porcine kidney trehalase, and A. niger amyloglucosidase activities, the reaction mixture contained maltose (25 mM) and the appropriate amount of enzyme, and the incubations were performed for 10–30 min at 37 °C. The reaction was stopped by heating at 100 °C for 3 min. After centrifugation (600× g; 10 min), the resulting reaction mixture was added to the Glucose CII-test Wako (Wako Pure Chemical Ind., Osaka, Japan). The absorbance at 505 nm was measured to determine the amount of the released D-glucose. Other glycosidase activities were determined using an appropriate para-nitrophenyl glycoside as substrate at the optimum pH of each enzyme. The reaction mixture contained the substrate (2 mM) and the appropriate amount of enzyme. The reaction was stopped by the addition of Na2CO3 (400 mM). The released para-nitrophenol was measured spectrometrically at 400 nm. All reactions run in methanol.
# [2] = biological target: T1, α-D-galactosidase (from coffee beans) (Coffea arabica, UniProt Q42656); experiment: Glycosidase inhibition, Table 6 (Laboratory 1)
# T1 construct: purchased Sigma-Aldrich Co
# Excerpt: as §1, §2
# β-D-glucosidase (almond) = experiment: Glycosidase inhibition, Table 6 (Laboratory 1)
# Excerpt: as §1, §2
# [3] = biological target: T2, α-L-fucosidase (from bovine kidney) (Bos taurus, UniProt Q2KIM0); experiment: Glycosidase inhibition, Table 6 (Laboratory 1)
# T2 construct: purchased Sigma-Aldrich Co
# T2 sequence (Q2KIM0 23-468): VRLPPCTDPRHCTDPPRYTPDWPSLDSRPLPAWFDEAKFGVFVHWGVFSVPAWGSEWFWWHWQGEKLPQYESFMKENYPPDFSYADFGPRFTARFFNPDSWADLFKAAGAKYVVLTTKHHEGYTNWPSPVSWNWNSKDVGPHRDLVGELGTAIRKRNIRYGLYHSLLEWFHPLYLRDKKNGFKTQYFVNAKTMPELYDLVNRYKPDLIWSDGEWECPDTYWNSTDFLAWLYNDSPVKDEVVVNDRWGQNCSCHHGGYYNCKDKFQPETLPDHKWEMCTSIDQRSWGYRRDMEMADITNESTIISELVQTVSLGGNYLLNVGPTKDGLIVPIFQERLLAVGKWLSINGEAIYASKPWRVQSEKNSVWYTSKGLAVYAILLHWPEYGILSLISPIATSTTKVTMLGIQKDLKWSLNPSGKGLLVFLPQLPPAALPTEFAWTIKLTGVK
# Excerpt: as §1, §2
# [4] = system: β-D-mannosidase (from snail); experiment: Glycosidase inhibition, Table 6 (Laboratory 1)
# Excerpt: as §1, §2
# [5] = biological target: T3, α-D-glucosidase (from yeast) (Saccharomyces cerevisiae, UniProt P53341); experiment: Glycosidase inhibition, Table 6 (Laboratory 1)
# T3 construct: purchased Sigma-Aldrich Co
# Excerpt: as §1, §2
# [6] = system: α-D-glucosidase (rat intestinal maltase); experiment: Glycosidase inhibition, Table 6 (Laboratory 1)
# Excerpt: as §1, §2
# [7] = biological target: T4, β-D-galactosidase (bovine liver) (Bos taurus, UniProt Q58D55); experiment: Glycosidase inhibition, Table 6 (Laboratory 1)
# T4 sequence (Q58D55 28-653): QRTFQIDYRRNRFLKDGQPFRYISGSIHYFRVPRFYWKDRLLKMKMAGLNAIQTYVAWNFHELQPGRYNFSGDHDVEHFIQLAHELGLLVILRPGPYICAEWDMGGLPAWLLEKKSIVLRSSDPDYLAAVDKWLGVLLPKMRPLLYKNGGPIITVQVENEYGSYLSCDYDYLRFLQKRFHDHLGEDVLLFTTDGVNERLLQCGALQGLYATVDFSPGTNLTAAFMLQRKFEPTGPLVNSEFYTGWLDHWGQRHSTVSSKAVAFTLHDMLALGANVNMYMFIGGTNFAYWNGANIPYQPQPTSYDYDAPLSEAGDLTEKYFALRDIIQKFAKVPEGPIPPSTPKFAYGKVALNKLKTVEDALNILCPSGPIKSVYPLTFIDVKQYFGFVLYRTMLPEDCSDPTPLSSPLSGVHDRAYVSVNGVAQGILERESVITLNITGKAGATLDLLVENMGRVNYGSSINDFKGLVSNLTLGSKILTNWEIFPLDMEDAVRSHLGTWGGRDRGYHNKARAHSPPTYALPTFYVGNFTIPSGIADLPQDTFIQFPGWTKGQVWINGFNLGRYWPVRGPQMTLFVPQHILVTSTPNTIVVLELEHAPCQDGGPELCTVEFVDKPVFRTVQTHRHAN
# Excerpt: as §1, §2
# [8] = system: N-acetyl-β-D-hexosaminidase (rat intestine); experiment: Glycosidase inhibition, Table 7; details: 1 mg/mL aqueous solution added, 27 °C, run in water
# Experimental: All enzymes and para-nitrophenyl substrates were purchased from Sigma. Enzymes were assayed at 27 °C in citric acid (0.1M)/disodium hydrogen phosphate (0.2 M) buffers at the optimum pH for the enzyme. The incubation mixture consisted of […] enzyme solution, […] of 1 mg/mL aqueous solution of extract, and […] of the appropriate 5 mM para-nitrophenyl substrate made up in buffer at the optimum pH for the enzyme. The reactions were stopped by the addition of […] 0.4 M glycine (pH 10.4) during the exponential phase of the reaction, which had been determined at the beginning using uninhibited assays in which water replaced the inhibitor. Final absorbances were read at 405 nm using a Versamax microplate reader (Molecular Devices). Assays were carried out in triplicate, and the values given are the means of the three replicates per assay. All reactions run in water.
# T1 sequence (Q42656 16-378): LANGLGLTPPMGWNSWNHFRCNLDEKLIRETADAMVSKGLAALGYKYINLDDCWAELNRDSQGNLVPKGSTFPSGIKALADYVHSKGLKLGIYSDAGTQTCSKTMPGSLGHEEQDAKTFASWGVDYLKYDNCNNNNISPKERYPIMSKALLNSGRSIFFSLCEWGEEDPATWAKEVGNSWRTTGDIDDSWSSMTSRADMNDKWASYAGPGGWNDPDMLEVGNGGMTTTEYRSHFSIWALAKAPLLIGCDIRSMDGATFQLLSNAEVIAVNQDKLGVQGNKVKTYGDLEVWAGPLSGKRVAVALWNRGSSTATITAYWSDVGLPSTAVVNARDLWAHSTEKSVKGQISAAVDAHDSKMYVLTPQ
# T3 sequence (P53341 whole entry): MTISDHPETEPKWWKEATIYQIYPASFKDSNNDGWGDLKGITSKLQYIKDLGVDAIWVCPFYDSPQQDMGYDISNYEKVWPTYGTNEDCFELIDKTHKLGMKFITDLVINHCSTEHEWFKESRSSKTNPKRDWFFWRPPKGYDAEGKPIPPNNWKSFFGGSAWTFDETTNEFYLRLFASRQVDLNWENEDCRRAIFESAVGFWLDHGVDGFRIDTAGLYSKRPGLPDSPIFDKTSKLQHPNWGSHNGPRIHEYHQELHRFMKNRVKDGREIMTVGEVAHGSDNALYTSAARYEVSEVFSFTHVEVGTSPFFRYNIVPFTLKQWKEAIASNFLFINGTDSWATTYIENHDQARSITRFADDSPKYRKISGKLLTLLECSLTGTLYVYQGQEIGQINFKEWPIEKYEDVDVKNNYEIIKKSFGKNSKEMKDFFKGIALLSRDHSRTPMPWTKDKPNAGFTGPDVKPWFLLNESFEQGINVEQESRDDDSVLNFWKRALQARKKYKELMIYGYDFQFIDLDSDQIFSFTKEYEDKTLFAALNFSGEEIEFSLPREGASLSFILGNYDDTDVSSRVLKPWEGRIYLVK
Compound,"β-D-Glucuronidase Bovine Liver, inhibition % at 100 μM [1]",inhibition at 100 µM [2],"β-D-Glucosidase Almond, inhibition % at 100 μM (β-D-glucosidase (almond))","β-D-Mannosidase Snail, inhibition % at 100 μM [4]",inhibition at 100 µM [5],"α-D-Glucosidase Rat Intestinal Maltase, inhibition % at 100 μM [6]",inhibition at 100 µM [7],"β-D-Glucuronidase Bovine Liver, inhibition % at 1000 μM [1]",inhibition at 1000 µM [2],"β-D-Glucosidase Almond, inhibition % at 1000 μM (β-D-glucosidase (almond))",inhibition at 1000 µM [3],"β-D-Mannosidase Snail, inhibition % at 1000 μM [4]",inhibition at 1000 µM [5],"α-D-Glucosidase Rat Intestinal Maltase, inhibition % at 1000 μM [6]","N-Acetyl-β-D-hexosaminidase Rat Intestine, percentage inhibition [8]",also measured
"CC1(C)O[C@H]2O[C@H]3[C@@H]([C@H]2O1)N(Cc1ccc(B2OC(C)(C)C(C)(C)O2)cc1)C[C@H]3O [para 6, N-(4-Methylphenylboronic acid pinacol ester)-3,6-dideoxy-3,6-imino-1,2-O-isopropylidene-α-D-gulofuranose]",^c NI ^d (0%),1.6%,^c NI ^d (0%),^c NI ^d (0%),3.4%,^c NI ^d (0%),22.3%,,,,,,,,,inhibition at 100 µM [3]: 0%
"CC1(C)O[C@H]2O[C@H]3[C@@H]([C@H]2O1)N(Cc1ccccc1)C[C@H]3O [Compound 3, N-Benzyl-3,6-dideoxy-3,6-imino-1,2-O-isopropylidene-α-D-gulofuranose]",^c NI ^d (0%),9.5%,^c NI ^d (0%),^c NI ^d (2.7%),4.7%,^c NI ^d (0%),26.1%,,,,,,,,,inhibition at 100 µM [3]: 0%
"OB(O)c1ccc(CN2CC(O)C3OC(O)C(O)C32)cc1 [para 7, N-(4-Methylphenylboronic acid)-3,6-dideoxy-3,6-imino-D-gulofuranose]",,,,,,,,^a NI ^b (3.5%),0%,^a NI ^b (43.6%),0.8%,^a NI ^b (4.1%),0%,^a NI ^b (0%),4.4%,
"N[C@@H](Cc1ccc(B(O)O)cc1)C(=O)O [^10B-BPA, reference compound]",^c NI ^d (0%),,^c NI ^d (0%),^c NI ^d (0.3%),,^c NI ^d (0%),,,,,,,,,,"α-D-Galactosidase Coffee Beans, inhibition % at 100 μM ([2]; 100 μM): ^c NI ^d (1.2%); α-L-Fucosidase Bovine Kidney, inhibition % at 100 μM ([3]; 100 μM): ^c NI ^d (0%); α-D-Glucosidase Yeast, inhibition % at 100 μM ([5]; 100 μM): ^c NI ^d (0%); β-D-Galactosidase Bovine Liver, inhibition % at 100 μM ([7]; 100 μM): ^c NI ^d (0%)"
"N[C@@H](Cc1ccc(B(O)O)cc1)C(=O)O [BPA, 4-borono-L-phenylalanine, reference compound]",^c NI ^d (7.4%),,^c NI ^d (0%),^c NI ^d (2.1%),0%,^c NI ^d (0%),10.9%,,,,,,,,,
"borocaptate sodium [BSH, reference compound]",,,,,,,,^a NI ^b (19.6%),,^a NI ^b (0%),,^a NI ^b (19.2%),,^a NI ^b (0%),,"α-D-Galactosidase Coffee Beans, inhibition % at 1000 μM ([2]; 1000 μM): ^a NI ^b (12.3%); α-L-Fucosidase Bovine Kidney, inhibition % at 1000 μM ([3]; 1000 μM): ^a NI ^b (0%); α-D-Glucosidase Yeast, inhibition % at 1000 μM ([5]; 1000 μM): ^a NI ^b (6.9%); β-D-Galactosidase Bovine Liver, inhibition % at 1000 μM ([7]; 1000 μM): ^a NI ^b (0%)"
"OC[C@H](O)[C@@H]1[C@H](O)[C@H](O)CN1Cc1ccc(B(O)O)cc1 [para 8, N-(4-Methylphenylboronic acid)-1,4-dideoxy-1,4-imino-L-gulitol]",,,,,,,,^a NI ^b (6.0%),1.4%,^a NI ^b (28%),1.7%,^a NI ^b (6.9%),5.6%,^a NI ^b (10.5%),2.6%,
"OC[C@H](O)[C@@H]1[C@H](O)[C@H](O)CN1Cc1ccccc1 [Compound 5, N-Benzyl-1,4-dideoxy-1,4-imino-L-gulitol]",^c NI ^d (3.7%),1.5%,^c NI ^d (0%),^c NI ^d (6.9%),2.9%,^c NI ^d (12.9%),0%,,,,,,,,−1.5%,
"OC1O[C@@H]2[C@H]([C@H]1O)N(Cc1ccccc1)C[C@H]2O (stereo partly drawn) [Compound 4, N-Benzyl-3,6-dideoxy-3,6-imino-D-gulofuranose]",,,,,,,,^a NI ^b (7.0%),1.8%,^a NI ^b (27.4%),0.4%,^a NI ^b (1.0%),0%,^a NI ^b (22.4%),,
